Data reported in patent US12268723B2, “Peptidomimetics for the treatment of coronavirus and picorna virus infections” (priority 2019, dated 2025).
Where two headings read alike, the source gives them in different places.

Tests used:
SARS-CoV-2 = assay: microbe, parasite or virus in culture; type: cell-based; conditions: for inhibition at 10 µM: read-out: SARS-CoV-2 Inhibition at 10 μM (%); for EC50 / EC90: unit inferred; for EC50: read-out: Activity against SARS-CoV-2 EC50; for EC90: read-out: Activity against SARS-CoV-2 EC90
HCoV (OC43) = assay: In vitro assay for HCoV (OC43), virus yield reduction in Huh7 cells; type: cell-based; conditions: Betacoronavirus 1, OC43, Huh-7, 10 μM
Text: In order to determine the potential effect of each selected compound against in vitro replication of SARS-CoV-2 in Vero cells or HCoV (OC43) in Huh7 cells, a confluent cell monolayer in a 96-wells cell culture microplate can be infected at a multiplicity of infection (MOI) of 0.1 and treated with a maximum non-toxic concentration (MNTC) of each compound. To assess the antiviral activity, a virus yield reduction assay using specific qRT-PCR for each virus can be performed.
Dose-Dependent Antiviral Assay. The antiviral effect of each compound selected through the antiviral evaluation assay can be further confirmed by virus yield reduction assay using the optimized qRT-PCR by measuring the RNA copy number for each virus in the supernatant of treated-infected cells. A positive control, such as remdesivir, can be used for each assay.
Statistical analysis. The half-maximal effective concentration (EC50) and the concentration with 90% of inhibitory effect (EC90) can be calculated using GraphPad PRISM for Windows, version 5 (GraphPad Software Inc., San Diego, CA, 2005) or the Chou and Talalay Method.
These methods were used to evaluate certain of the compounds described herein.

[1] = system: Enterovirus EV-71 (BrCr strain); assay: Anti-enterovirus activity, EV-71 virus yield reduction (qRT-PCR) in RD cells; type: cell-based; conditions: for IC50: given as IC50, read-out: IC50 against Enterovirus EV-71 (BrCr strain); for IC90: given as IC90, read-out: IC90 against Enterovirus EV-71 (BrCr strain); for EC50 / EC90: 0.1 MOI, 2 days post-treatment; for EC50: read-out: EC50 against Enterovirus EV-71 (BrCr strain); for EC90: read-out: EC90 against Enterovirus EV-71 (BrCr strain)
Experimental: Compounds are tested for cytotoxicity using a MTS (3-(4,5-dimethylthiazol-2-yl)-5-(3-carboxymethoxyphenyl)-2-(4-sulfophenyl)-2H-tetrazolium) method and the CC50 (IC50) values (cytotoxic concentrations of drug required to reduce cell viability by 50%) are determined for each test compound in human rhabdomyosarcoma (RD) cell line. In addition, the maximum non-toxic concentrations (MNTC) are also determined for each compound. To avoid potential drug toxicity that would interfere with viral cytopathic effect (CPE), compounds are evaluated at nontoxic concentrations. The resultant inhibitory effect of each test compound is calculated as a percentage of decrease in EV-71 CPE. Briefly, a monolayer of RD cells is prepared in a 96-well plates. The cells are then infected with 1 MOI of EV-71 (BrCr strain) followed by treatment with a single non-toxic dose of each compound in triplicate. The vehicle control wells are treated with 0.1% DMSO diluted in the working media. The plate is then incubated for 48 h at which time the virus-control wells produced detectable CPE. To determine the probable CPE inhibitory effect of test compounds, an MTS assay is performed and effective compounds are chosen for further studies to identify the potency of the compounds and their concentration-dependent manner. The dose-response antiviral activity of each compound is determined by a virus yield reduction assay method. Briefly, confluent monolayers of RD cells in 96-wells microplate are infected with 0.1 MOI of EV-71 followed by treatment with compounds. Effective compounds are further quantified and confirmed with a virus-yield-reduction assay using an optimized in house qRT-PCR to determine the EV-71 RNA copy number after 2 days post-treatment from collected supernatants. qRT-PCR is performed using the EV-71 specific probe/primer mix and qScript-Tough master mix (Quantibio, USA). Quantitative PCR measurement was performed using StepOnePlus real time PCR system ([…]) according to manufacturer's protocol. The median effective concentration (EC50) and the concentration with 90% of inhibitory effect (EC90) are calculated using GraphPad PRISM for Windows, version 5 (GraphPad Software Inc., San Diego, CA, 2005) as the means±standard deviation (SD) of the mean from triplicate assay from three independent experiments.

[2] = Cytotoxicity (MTS) in RD cells; type: cell-based, human; conditions: human, RD (rhabdomyosarcoma) cells
Experimental: Compounds are tested for cytotoxicity using a MTS (3-(4,5-dimethylthiazol-2-yl)-5-(3-carboxymethoxyphenyl)-2-(4-sulfophenyl)-2H-tetrazolium) method and the CC50 (IC50) values (cytotoxic concentrations of drug required to reduce cell viability by 50%) are determined for each test compound in human rhabdomyosarcoma (RD) cell line. In addition, the maximum non-toxic concentrations (MNTC) are also determined for each compound. To avoid potential drug toxicity that would interfere with viral cytopathic effect (CPE), compounds are evaluated at nontoxic concentrations. The resultant inhibitory effect of each test compound is calculated as a percentage of decrease in EV-71 CPE. Briefly, a monolayer of RD cells is prepared in a 96-well plates. The cells are then infected with 1 MOI of EV-71 (BrCr strain) followed by treatment with a single non-toxic dose of each compound in triplicate. The vehicle control wells are treated with 0.1% DMSO diluted in the working media. […] The dose-response antiviral activity of each compound is determined by a virus yield reduction assay method. Briefly, confluent monolayers of RD cells in 96-wells microplate are infected with 0.1 MOI of EV-71 followed by treatment with compounds. […] Quantitative PCR measurement was performed using StepOnePlus real time PCR system ([…]) according to manufacturer's protocol.

[3] = Severe acute respiratory syndrome coronavirus 2, Vero
[4] = Severe acute respiratory syndrome coronavirus 2, Vero cells

Row | SMILES | CC50 [2] | EC50 ([1]; RD, 48 h) | EC90 ([1]; RD, 48 h) | further results
1 | CC(C)C[C@H](NC(=O)[C@H](Cc1cccc2ccccc12)NC(=O)OCc1ccccc1)C(=O)N[C@@H](C[C@@H]1CCCNC1=O)C(O)S(=O)(=O)O (stereo partly drawn) [Compound 37, Sodium (5S,8S, 11S)-12-hydroxy-8-isobutyl-5-(naphthalen-1-ylmethyl)-3,6,9-trioxo-11-(((S)-2-oxopiperidin-3-yl)methyl)-1-phenyl-2-oxa-4,7,10-triazadodecane-12-sulfonate] | – | – | – | inhibition at 10 µM (SARS-CoV-2; [3]): 99.9%; EC50 (SARS-CoV-2; [4]): 300 nM; EC90 (SARS-CoV-2; [4]): 4500 nM; inhibition at 10 µM (HCoV (OC43)): 99.9%
2 | CC(C)C[C@H](NC(=O)[C@H](Cc1cccc2ccccc12)NC(=O)OCc1ccccc1)C(=O)N[C@@H](C[C@@H]1CCCNC1=O)C(=O)C(F)(F)F [Compound 39, Benzyl ((S)-1-(((S)-4-methyl-1-oxo-1-(((S)-4,4,4-trifluoro-3-oxo-1-((S)-2-oxopiperidin-3-yl)butan-2-yl)amino)pentan-2-yl)amino)-3-(naphthalen-1-yl)-1-oxopropan-2-yl)carbamate] | – | – | – | inhibition at 10 µM (SARS-CoV-2; Severe acute respiratory syndrome coronavirus 2, 10 μM, Vero cells): 68%; inhibition at 10 µM (HCoV (OC43)): 99.4%
3 | CC(C)C[C@H](NC(=O)[C@H](Cc1ccc(F)cc1)NC(=O)c1cnccn1)C(=O)N[C@H](C=O)C[C@@H]1CCNC1=O | > 100000 nM | – | – | IC50 [1]: 90 nM; IC90 [1]: 570 nM
4 | CC(C)C[C@H](NC(=O)[C@H](Cc1cccc2ccccc12)NC(=O)OCc1ccccc1)C(=O)N[C@@H](C[C@@H]1CCCNC1=O)C(O)S(=O)(=O)O (stereo partly shown) [drawing 134] | 95000 nM | – | – | IC50 [1]: 11.8 nM; IC90 [1]: 30 nM
5 | CC(C)C[C@H](NC(=O)[C@H](Cc1cccc2ccccc12)NC(=O)OCc1ccccc1)C(=O)N[C@@H](C[C@@H]1CCCNC1=O)[C@@H](O)C#N [Compound 128, Benzyl ((S)-1-(((S)-1-(((1R,2S)-1-cyano-1-hydroxy-3-((S)-2-oxopiperidin-3-yl)propan-2-yl)amino)-4-methyl-1-oxopentan-2-yl)amino)-3-(naphthalen-1-yl)-1-oxopropan-2-yl)carbamate] | – | – | – | inhibition at 10 µM (SARS-CoV-2; [3]): 99.9%; inhibition at 10 µM (HCoV (OC43)): 100%
6 | CC(C)C[C@H](NC(=O)[C@H](Cc1cccc2ccccc12)NC(=O)c1cnccn1)C(=O)N[C@H](C=O)C[C@@H]1CCNC1=O | > 100000 nM | – | – | IC50 [1]: 17.2 nM; IC90 [1]: 64 nM
7 | CC(C)C[C@H](NC(=O)[C@H](Cc1cccc2ccccc12)NC(=O)OCCc1ccccc1)C(=O)N[C@H](C=O)C[C@@H]1CCNC1=O | 42500 nM | 750 nM | 2110 nM | –
8 | CC(C)C[C@H](NC(=O)[C@@H](Cc1cccc2ccccc12)NC(=O)OCc1ccccc1)C(=O)N[C@H](C=O)C[C@@H]1CCCNC1=O | 32500 nM | – | – | IC50 [1]: 8.8 nM; IC90 [1]: 30 nM
9 | CC(C)C[C@H](NC(=O)[C@H](Cc1cccc2ccccc12)NC(=O)OCc1ccccc1)C(=O)N[C@@H](C[C@@H]1CCCNC1=O)C(O)C(F)(F)F (stereo partly shown) [drawing 125] | 25000 nM | 310 nM | 580 nM | –
10 | CC(C)C[C@H](NC(=O)[C@H](Cc1ccc(F)cc1)NC(=O)OCc1ccccc1)C(=O)N[C@H](C=O)C[C@@H]1CCNC1=O | > 100000 nM | 30 nM | 60 nM | –
11 | CC(C)C[C@H](NC(=O)[C@H](Cc1cccc2ccccc12)NC(=O)c1cnccn1)C(=O)N[C@H](C=O)C[C@@H]1CCCNC1=O | > 100000 nM | 15.8 nM | 47.5 nM | –
12 | COC(=O)C1O[C@@H]1[C@H](C[C@@H]1CCNC1=O)NC(=O)[C@H](CC(C)C)NC(=O)[C@H](Cc1cccc2ccccc12)NC(=O)OCc1ccccc1 (stereo partly shown) | 80200 nM | 190 nM | 360 nM | –
13 | CC(C)C[C@H](NC(=O)[C@H](Cc1ccc(F)cc1)NC(=O)OCc1ccccc1)C(=O)N[C@H](C=O)C[C@@H]1CCCNC1=O [drawing 135] | > 100000 nM | – | – | IC50 [1]: 10.3 nM; IC90 [1]: 29.1 nM
14 | CC(C)C[C@H](NC(=O)[C@H](Cc1cccc2ccccc12)NC(=O)OCc1ccccc1)C(=O)N[C@@H](CC1CCNC1=O)[C@H]1O[C@@H]1S(C)(=O)=O (stereo partly shown) | > 100000 nM | 1440 nM | 5020 nM | –
15 | CC(C)C[C@H](NC(=O)OCc1ccccc1)C(=O)NC(C=O)C[C@@H]1CCCNC1=O (stereo partly shown) | > 100000 nM | 50 nM | 130 nM | –
16 | CC(C)C[C@H](NC(=O)[C@H](Cc1cccc2ccccc12)NC(=O)OCc1ccccc1)C(=O)N[C@H](C=O)C[C@@H]1CCNC1=O | > 100000 nM | 90 nM | 260 nM | –
17 | Cc1cc(C(=O)N[C@@H](Cc2cccc3ccccc23)C(=O)N[C@@H](CC(C)C)C(=O)N[C@H](C=O)C[C@@H]2CCCNC2=O)no1 [Compound 91, 5-Methyl-N—((S)-1-(((S)-4-methyl-1-oxo-1-(((S)-1-oxo-3-((S)-2-oxopiperidin-3-yl)propan-2-yl)amino)pentan-2-yl)amino)-3-(naphthalen-1-yl)-1-oxopropan-2-yl)isoxazole-3-carboxamide] | – | – | – | EC50 (SARS-CoV-2; [4]): 600 nM; EC90 (SARS-CoV-2; [4]): 2300 nM
18 | Cc1cc(C(=O)N[C@@H](Cc2ccc(F)cc2)C(=O)N[C@@H](CC(C)C)C(=O)N[C@H](C=O)C[C@@H]2CCCNC2=O)no1 | > 100000 nM | 9.4 nM | 16.6 nM | –
19 | CC(C)C[C@H](NC(=O)[C@H](Cc1cccc2ccccc12)NC(=O)OCc1ccccc1)C(=O)N[C@@H](C[C@@H]1CCCNC1=O)C(=O)C(F)(F)F [drawing 122] | 65000 nM | 320 nM | 580 nM | –
20 | Cc1cc(C(=O)N[C@@H](Cc2cccc3ccccc23)C(=O)N[C@@H](CC(C)C)C(=O)NC(C=O)C[C@@H]2CCCNC2=O)no1 (single isomer, unassigned) | > 100000 nM | – | – | EC50 [1]: 1.7 nM; EC90 [1]: 7.5 nM
21 | CC(C)C[C@H](NC(=O)[C@H](Cc1ccc(O)cc1)NC(=O)OCc1ccccc1)C(=O)N[C@H](C=O)C[C@@H]1CCCNC1=O | > 100000 nM | 190 nM | 360 nM | –
22 | Cc1cc(C(=O)N[C@@H](CC(C)C)C(=O)N[C@H](C=O)C[C@@H]2CCCNC2=O)no1 | > 100000 nM | 1100 nM | 4000 nM | –
23 | CC(C)C[C@H](NC(=O)[C@H](Cc1ccc(O)cc1)NC(=O)OCc1ccccc1)C(=O)N[C@H](C=O)CC1CCNC1=O (stereo partly shown) | – | 2300 nM | 4800 nM | CC50 ([2]; unit inferred): > 100000 nM
24 | CC(C)C[C@H](NC(=O)[C@H](Cc1ccc(F)cc1)NC(=O)c1cnccn1)C(=O)N[C@H](C=O)C[C@@H]1CCCNC1=O | > 100000 nM | 280 nM | 570 nM | –
